Data published in patent US20120004193A1, “PROCESS FOR PRODUCTION OF ORALLY INGESTIBLE COMPOSITION CONTAINING ARABINOFURANOSYL VITEXIN, AND USE OF THE COMPOSITION” (Fuji Sangyo Co., Ltd., priority 2009, published 2012).

System: ICR mice
Assay: Sedative and sleep-inducing activities in thiopental sodium-treated mice
Assay type: in vivo, mouse
Conditions: 100 mg/kg body weight oral, thiopental sodium 30 mg/kg i.p. 45 minutes later, measured over 40 minutes, compared with negative control group, p<0.01 (Dunnet)
Method: The arabinofuranosyl vitexin-isolated product obtained in the above-mentioned procedure (1) was used to study sedative and sleep-inducing effects. A sample was orally administered to six ICR mice (body weight: 40 to 45 g).
As the sample, the ‘arabinofuranosyl vitexin (100 mg/kg body weight)’ dissolved in physiological saline was orally administered. It should be noted that ‘diazepam (2 mg/kg body weight)’ having a sleep-inducing effect was dissolved in physiological saline and orally administered as a positive control, and ‘physiological saline alone’ was orally administered as a negative control.
Then, 45 minutes after the oral administration of the sample, thiopental sodium (30 mg/kg body weight) […] was administered intraperitoneally, and the mice were individually placed in mouse cages (17 cm×27 cm).
In a period from the start of the administration of thiopental sodium to 40 minutes later, a total time when a mouse stopped moving for one or more minutes and got in a sleep state was measured to evaluate the sedative and sleep-inducing effects.
It should be noted that the symbol in FIG. 2 represents that there is a significant difference compared with the negative control group at a risk rate of less than 1% (p<0.01) by a Dunnet multiple comparison assay.

**Q.** How did the “sedation and sleeping times (total time when a mouse stopped moving for one or more minutes and got in a sleep state)” value turn out when `O=c1cc(-c2ccc(O)cc2)oc2c(C3OC(CO)C(O)C(O)C3OC3OC(CO)C(O)C3O)c(O)cc(O)c12` [arabinofuranosyl vitexin, 2″-O-α-D-arabinofuranosyl vitexin] was run?
**A.** The value was “extended significantly”.
